In patent publication US10947202B2, “Sodium ion channel inhibitors and pharmaceutically acceptable salts and polymorphs thereof and uses thereof” (SHANGHAI HAIYAN PHARMACEUTICAL TECHNOLOGY CO., LTD., priority 2017, dated 2021):

Assays:
hNav1.7 = hNav1.7 (Homo sapiens, UniProt Q15858); assay: Manual patch clamp experiment of hNav1.7 channel (CHO-hNav1.7 stable cell line); format: cell-based
Excerpt: Patch voltage clamp electrophysiology allows for the direct measurement and quantification of current block of voltage-gated sodium channels (NaV's), and allows the determination of the time and voltage-dependence of block which has been interpreted as differential binding to the resting, open and inactivated states of the sodium channel to reflect the compound's inhibitory or activating effects (Hille, B., Journal of General Physiology (1977), 69: 497-515).
Representative compounds of the present disclosure were performed using a manual patch clamp experiment and the purpose of this study was to test the effect of compounds on this ion channel current on a stable cell line transfected with a specific ion channel using a manual patch clamp method, the used stable cell lines CHO-hNav1.7 and HEK-hNav1.5 were from Genionics and WuXi Apptec (Shanghai) respectively.
Manual patch clamp experimental program is as follows:
(1) Preparation of solutions and compounds: The whole cell patch clamp technique was used to record hNav1.7 and hNav1.5 currents. In the experiment, the composition of extracellular fluid (mM): HEPES: 5, NaCl: 40, KCl: CaCl2:1, MgCl2:1, CdCl2:0.1, TEA-Cl: 20. The pH was adjusted to 7.3 with NaOH and the osmotic pressure was adjusted to 310-320 mOsm with sucrose, filtered and stored at 4° C. The composition of the intracellular fluid (mM): HEPES: 10, NaCl: 10, CsOH: 5, CsF: 140, EGTA: 1. The pH was adjusted to 7.3 with CsOH and the osmotic pressure was adjusted to 280-290 mOsm with sucrose, filtered and stored at −20° C.
The positive control and the test compound were firstly dissolved in 100% DMSO (Sigma-Aldrich, D2650), configured as stock solution at a concentration (100 nM, 1000 nM).) The above stock solution was serially diluted with DMSO prior to the experiment, the solution was further diluted with extracellular solution to obtain the desired concentration of the test solution.
(2) Manual Patch Clamp Experiment: The cell suspension was added to a 35 mm petri dish and placed on an inverted microscope stage, the cells were perfused with an extracellular fluid and the flow rate was 1-2 mL/min after cell adherence. The glass microelectrode was pulled in two steps by a microelectrode puller with an inlet water resistance of 2-5 MΩ. A/D-D/A digital-analog conversion was performed by Digidata 1440 (Molecular Devices) and pCLAMP software (version 10.2, Molecular Devices) for stimulation and signal acquisition; the signal was amplified by patch clamp amplifier (Multiclamp 700B, Molecular Devices), filtering is 4 KHz.
Two different voltage stimulation procedures were used in the hNav1.7 and hNav1.5 manual patch clamp experiments.
One is the inactivation stimulation program, the clamp potential is set at V1/2 of the corresponding channel, ie about 50% of the channels are inactivated, then the voltage is applied to −120 mV for 50 ms, then depolarized to −10 mV for 20 ms leading to sodium current, and finally back to the clamp potential. This stimulation program can also be called channel state-dependent voltage stimulation program.
The other is the non-inactivation stimulation program, the clamp potential is maintained at −120 mV, voltage stimulation is given to −10 mV for 20 ms leading to sodium current, and finally back to the clamp potential. That is all channels have not experienced inactivation status, but activate directly from the resting state under the conditions of the stimulation program.
The time intervals of these two voltage stimulation program were 10 s. The inhibitory effect of the compound was calculated by the change of the current before and after dosing, the IC50 value was fitted by the Hill equation. […] The results are shown in Table 33 and Table 34, respectively.

Nav1.2 = Nav1.2 (Homo sapiens, UniProt Q99250); assay: Selectivity for other ion channels: Nav1.2; format: cell-based
Nav1.8 = Nav1.8 (Homo sapiens, UniProt Q9Y5Y9); assay: Selectivity for other ion channels: Nav1.8; format: cell-based
Chain of Nav1.8 (Q9Y5Y9 whole entry): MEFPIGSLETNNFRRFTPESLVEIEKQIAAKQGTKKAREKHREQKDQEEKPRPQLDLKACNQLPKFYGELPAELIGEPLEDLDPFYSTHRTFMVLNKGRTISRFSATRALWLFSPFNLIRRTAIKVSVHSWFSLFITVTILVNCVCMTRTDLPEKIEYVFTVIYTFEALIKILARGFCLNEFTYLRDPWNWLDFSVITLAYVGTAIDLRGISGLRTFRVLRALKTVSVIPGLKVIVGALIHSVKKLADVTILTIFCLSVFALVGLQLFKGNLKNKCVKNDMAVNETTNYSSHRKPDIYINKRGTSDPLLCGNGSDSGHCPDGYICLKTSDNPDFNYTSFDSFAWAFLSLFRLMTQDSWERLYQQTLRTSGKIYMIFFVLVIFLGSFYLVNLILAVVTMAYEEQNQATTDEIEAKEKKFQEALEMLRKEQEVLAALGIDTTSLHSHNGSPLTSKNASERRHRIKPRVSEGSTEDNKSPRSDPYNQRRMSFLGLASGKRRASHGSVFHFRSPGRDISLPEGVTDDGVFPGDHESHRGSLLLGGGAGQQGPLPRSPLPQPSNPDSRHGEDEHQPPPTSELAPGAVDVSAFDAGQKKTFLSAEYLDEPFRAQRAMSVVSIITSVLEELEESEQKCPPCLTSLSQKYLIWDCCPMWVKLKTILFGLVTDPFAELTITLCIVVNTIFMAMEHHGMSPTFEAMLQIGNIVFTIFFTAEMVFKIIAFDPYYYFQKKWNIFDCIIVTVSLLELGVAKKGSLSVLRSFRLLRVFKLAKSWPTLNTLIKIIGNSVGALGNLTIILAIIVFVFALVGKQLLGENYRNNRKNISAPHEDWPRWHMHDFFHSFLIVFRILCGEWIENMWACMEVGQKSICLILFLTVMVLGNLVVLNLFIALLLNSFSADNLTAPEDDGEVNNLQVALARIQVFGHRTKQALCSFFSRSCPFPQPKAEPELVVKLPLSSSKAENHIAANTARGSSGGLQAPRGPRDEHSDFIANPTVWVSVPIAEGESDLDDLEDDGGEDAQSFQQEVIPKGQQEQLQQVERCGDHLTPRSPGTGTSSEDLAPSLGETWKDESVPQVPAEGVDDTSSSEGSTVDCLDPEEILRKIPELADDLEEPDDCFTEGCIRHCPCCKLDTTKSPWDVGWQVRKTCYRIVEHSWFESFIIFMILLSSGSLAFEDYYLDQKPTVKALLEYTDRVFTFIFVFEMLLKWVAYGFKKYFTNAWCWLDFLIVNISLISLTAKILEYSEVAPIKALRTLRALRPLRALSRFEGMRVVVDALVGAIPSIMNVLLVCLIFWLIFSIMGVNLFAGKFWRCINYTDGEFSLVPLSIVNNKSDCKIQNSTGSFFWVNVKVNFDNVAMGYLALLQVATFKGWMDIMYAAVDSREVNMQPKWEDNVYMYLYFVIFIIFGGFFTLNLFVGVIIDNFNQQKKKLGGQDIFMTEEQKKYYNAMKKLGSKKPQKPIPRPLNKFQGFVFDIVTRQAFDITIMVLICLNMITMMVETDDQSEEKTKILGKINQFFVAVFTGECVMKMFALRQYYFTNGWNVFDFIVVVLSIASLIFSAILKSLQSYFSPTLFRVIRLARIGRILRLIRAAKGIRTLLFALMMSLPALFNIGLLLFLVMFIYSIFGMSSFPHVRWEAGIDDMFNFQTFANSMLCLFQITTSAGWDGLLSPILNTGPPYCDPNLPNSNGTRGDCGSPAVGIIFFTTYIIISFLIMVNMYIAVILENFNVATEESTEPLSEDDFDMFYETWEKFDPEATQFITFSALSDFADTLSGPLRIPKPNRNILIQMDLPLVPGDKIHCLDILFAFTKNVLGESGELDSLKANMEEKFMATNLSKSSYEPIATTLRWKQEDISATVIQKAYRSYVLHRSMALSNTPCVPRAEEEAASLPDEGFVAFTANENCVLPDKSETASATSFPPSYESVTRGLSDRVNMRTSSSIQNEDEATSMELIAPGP

[1] = Metabolism stability test in liver microsomes; format: in vitro ADME; conditions: human liver microsomes
Procedure: Buffer A: 1 L solution of 100 mM potassium dihydrogen phosphate containing 1 mM EDTA (Sigma, V900157-100G) was prepared.
Buffer B: 1 L solution of 100 mM dipotassium hydrogen phosphate containing 1 mM EDTA was prepared.
Buffer C: 700 mL of buffer B was taken out and titrated with buffer A to pH 7.4.
2.1 10 μl of 10 mM compound to be tested and 10 μl of 10 mM ketanserin were taken out and 190 μl of pure acetonitrile was added to each of them to prepare 500 μM compound to be tested and ketanserin, respectively.
2.2 20 μl (20 mg/mL) of liver microsomes (Corning Lot. NO. 4133007) stock solution was added to 513.4 μl of buffer C on wet ice. 0.75 mg/mL liver microsomal solution was obtained.
2.3 1.5 μl of each of the above-mentioned compound to be tested and ketanserin solution was added to 498.5 μl of liver microsomal solution (0.7 5 mg/mL) respectively on wet ice. 1.5 μM mixed solution of compound to be tested and 1.5 μM mixed solution of ketanserin were obtained.
2.4 At the time points 0, 5, 15, 30, 45, and 60 min, 30 μl of the mixed solution of compound to be tested and 30 μl of the mixed solution of ketanserin were dispensed into the reaction plate on wet ice, respectively.
2.5 5 mg reduced coenzyme II (Roche, 10621706001) was weighed and dissolved in 1 mL of buffer C. 6 mM reduced coenzyme II solution was obtained. The reduced coenzyme II solution was dispensed into the reaction plate.
2.6 Imipramine was dissolved to give a 10 mM solution. 10 μl imipramine solution was added to 100 mL of blank acetonitrile to generate the internal reference.
2.7 At 0 min, 135 μL of iced acetonitrile (Merck (Lot. 1778229518)) containing the internal reference was added to each well and then 15 μL of buffer C was added.
2.8 The reaction plate was placed into a 37° C. water bath incubator for 5 min. In the reaction plate, 15 μL of reduced coenzyme II solution was added to each well to initiate the reaction, and the time keeping was started. At the time points of 5, 15, 30, 45, and 60 min, 135 μL of iced acetonitrile containing the internal reference was added to each well to terminate the reaction.
2.9 The reaction plate was sealed with an aluminum film, placed on a vibration mixer and shaken at 500 rpm for 5 min. The plate was then centrifuged in a centrifuge at 3750 rp for 15 min.
2.10 The sample was diluted with pure water in accordance with the ratio of 1:1 and detected by LC/MS. […]
Wherein, the K value and the proportional factor were calculated by those skilled in the art according to the methods described in the prior art and contained in the instructions of the liver microsome product.

Chain of hNav1.7 (Q15858 whole entry): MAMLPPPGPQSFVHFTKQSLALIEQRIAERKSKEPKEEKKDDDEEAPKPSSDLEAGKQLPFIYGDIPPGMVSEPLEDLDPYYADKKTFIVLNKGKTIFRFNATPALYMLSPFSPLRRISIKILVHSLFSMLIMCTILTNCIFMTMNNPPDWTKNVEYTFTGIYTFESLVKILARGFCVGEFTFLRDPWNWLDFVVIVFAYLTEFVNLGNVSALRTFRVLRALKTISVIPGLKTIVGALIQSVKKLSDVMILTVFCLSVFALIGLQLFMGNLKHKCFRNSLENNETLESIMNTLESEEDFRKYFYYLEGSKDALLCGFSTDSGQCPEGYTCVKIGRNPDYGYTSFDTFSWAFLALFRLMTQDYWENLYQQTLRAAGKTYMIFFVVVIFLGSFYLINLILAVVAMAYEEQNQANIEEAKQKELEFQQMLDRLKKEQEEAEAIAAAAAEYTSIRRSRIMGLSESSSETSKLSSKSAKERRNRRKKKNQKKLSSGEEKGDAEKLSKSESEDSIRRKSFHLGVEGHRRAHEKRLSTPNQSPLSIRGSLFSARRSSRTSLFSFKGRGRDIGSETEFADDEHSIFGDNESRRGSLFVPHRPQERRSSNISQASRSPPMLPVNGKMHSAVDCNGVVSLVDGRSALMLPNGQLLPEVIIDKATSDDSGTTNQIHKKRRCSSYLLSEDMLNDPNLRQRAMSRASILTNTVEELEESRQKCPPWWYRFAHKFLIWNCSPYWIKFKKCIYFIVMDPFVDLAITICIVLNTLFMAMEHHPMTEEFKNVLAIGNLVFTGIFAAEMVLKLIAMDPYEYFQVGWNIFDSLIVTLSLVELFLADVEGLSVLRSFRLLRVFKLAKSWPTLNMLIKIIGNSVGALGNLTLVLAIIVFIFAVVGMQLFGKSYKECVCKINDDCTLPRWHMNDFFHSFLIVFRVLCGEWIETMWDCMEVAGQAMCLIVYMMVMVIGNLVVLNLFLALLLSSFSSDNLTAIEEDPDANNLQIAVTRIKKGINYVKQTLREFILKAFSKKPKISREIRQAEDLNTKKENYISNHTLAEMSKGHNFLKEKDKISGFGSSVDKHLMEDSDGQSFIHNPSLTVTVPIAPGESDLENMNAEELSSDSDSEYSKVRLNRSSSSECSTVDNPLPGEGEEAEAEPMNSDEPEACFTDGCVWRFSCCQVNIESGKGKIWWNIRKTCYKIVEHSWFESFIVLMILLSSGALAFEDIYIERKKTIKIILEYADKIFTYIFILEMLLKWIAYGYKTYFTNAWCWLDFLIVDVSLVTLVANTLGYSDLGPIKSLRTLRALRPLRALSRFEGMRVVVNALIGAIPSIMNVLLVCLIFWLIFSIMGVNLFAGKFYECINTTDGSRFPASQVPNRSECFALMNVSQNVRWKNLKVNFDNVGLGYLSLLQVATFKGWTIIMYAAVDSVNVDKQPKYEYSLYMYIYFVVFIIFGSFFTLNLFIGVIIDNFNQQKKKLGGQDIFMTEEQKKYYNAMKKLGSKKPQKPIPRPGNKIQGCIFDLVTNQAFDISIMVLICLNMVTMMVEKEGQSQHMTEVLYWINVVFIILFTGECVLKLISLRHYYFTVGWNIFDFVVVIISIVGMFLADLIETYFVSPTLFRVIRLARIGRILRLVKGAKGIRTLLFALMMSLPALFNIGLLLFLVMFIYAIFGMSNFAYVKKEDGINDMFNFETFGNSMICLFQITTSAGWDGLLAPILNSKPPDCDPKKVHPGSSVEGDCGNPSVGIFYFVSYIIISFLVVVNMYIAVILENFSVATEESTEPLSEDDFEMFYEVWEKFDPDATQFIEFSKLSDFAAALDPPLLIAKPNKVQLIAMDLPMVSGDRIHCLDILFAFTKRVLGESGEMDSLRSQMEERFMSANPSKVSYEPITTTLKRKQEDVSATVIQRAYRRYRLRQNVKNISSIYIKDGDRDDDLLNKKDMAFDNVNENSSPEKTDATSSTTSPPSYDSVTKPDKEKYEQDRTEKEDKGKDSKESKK

Cc1cc(N2CCN(Cc3cc(F)c(C(=O)NS(=O)(=O)C4CC4)cc3Cl)CC2)ccc1Cl [the free base of formula X compound, 5-chloro-4-((4-(4-chloro-3-methylphenyl)piperazin-1-yl)methyl)-N-(cyclopropylsulfonyl)-2-fluorobenzamide]
inhibitory activity against Nav1.7 (hNav1.7): higher inhibitory activity
inhibition at 0.1 µM (hNav1.7; read-out: Inhibition of Nav1.7, 100 nM(%)): 86.9%
inhibition at 1 µM (hNav1.7; read-out: Inhibition of Nav1.7, 1000 nM(%)): 97.7%
IC50 (Nav1.2): 9600 nM
IC50 (Nav1.8): 18900 nM
Clearance ratio [1]: 20.12 mL/min/kg
metabolic stability [1]: good metabolic stability
